In publication PMC12118337, “Development of a Peptide Inhibitor Targeting the C‐SH2 Domain of the SHP2 Phosphatase” (Chembiochem, 2025):
Residues, ends and D or L forms follow the SMILES beside them. *: point of attachment. 5FAM = O=C1OC2(c3ccc(O)cc3Oc3cc(O)ccc32)c2ccc(C(=O)*)cc21; X1 = O=C(O)C(C(=O)O)*

Key:
[1] = Peptide stability in Jurkat cell lysate (LC-MS); assay type: in vitro ADME; details: 200 µM peptide, WT Jurkat T cell lysate (RIPA buffer with protease inhibitor cocktail), 37 °C in the dark, 0, 6 or 24 h, peak area at 254 nm normalised to FAM (200 µM) internal control, three independent experiments
Experimental: 1. Cell culture and cell lines
Jurkat T cells were cultured in RPMI 1640 GlutaMAX (Thermo Fisher Scientific) supplemented with 10% heat-inactivated fetal bovine serum (FBS; Thermo Fisher Scientific), 100 U/mL penicillin (Sigma-Aldrich) and 100 µg/mL streptomycin (Sigma-Aldrich). HeLa cells were cultured in DMEM low glucose GlutaMAX (Thermo Fisher Scientific) supplemented with 10% fetal bovine serum (FBS; Thermo Fisher Scientific), 100 U/mL penicillin (Sigma-Aldrich) and 100 µg/mL streptomycin (Sigma-Aldrich).
Both cell lines tested negative for mycoplasma contamination.
2. Peptide stability in Jurkat cell lysate
The stability of FAM-labelled peptide 26 in WT Jurkat T cell lysate was evaluated by LC-MS. 106 Jurkat cells were washed with 1 mL PBS and lysed in 1 mL ice-cold RIPA buffer (25 mM Tris-HCl pH 7.5, 150 mM NaCl, 1% Nonidet P-40, 1% sodium deoxycholate, 0.1% SDS) containing cOmplete EDTA-free Protease Inhibitor Cocktail (Roche), on ice for 30 minutes vortexing every 10 minutes. Cell lysate was centrifuged at 20000 x g for 20 minutes at 4°C. […] The supernatant was collected on ice, filtered using a 13 mm syringe filter with a 0.2 µm PTFE membrane (Pall Life Sciences) and analysed by analytical HPLC-MS. The area under the peak at 254 nm corresponding to peptide 26 and FAM was determined. […]

WT Jurkat T cells = assay: Peptide cellular uptake by confocal fluorescence microscopy, Jurkat; assay type: cell-based; details: confocal fluorescence microscopy via FAM group, live cells, 50 or 100 μM peptide, 2 or 5 h, 37 °C; three independent experiments
Experimental: Multiply charged ions were selected for higher collisional dissociation (HCD) using a normalized collision energy (NCE) of 28%, fragmentation targeting for the 12 most abundant precursor ions. Fragment ions were measured with a resolution of 35,000 with a scan range of 200-2,000 m/z and an AGC target of 1E5. A dynamic exclusion time of 45 s with a maximum ion time of 120 ms and an isolation window of 3 m/z was set. Mass spectrometric data evaluation was performed using MaxQuant 1.6.5.0,[5] searching against a homo sapiens UniProt sequence database (2021/02; 218,230 entries including isoforms) supplemented with the protein sequences of the respective peptide used for the experiment. […] The protein list was analysed with Perseus v2.0.11.[6] […] The data was further analysed with the R language package and identified proteins compared with the CRAPome database (H. sapiens single step epitope tag AP-MS background contaminant list) to mitigate the influence of background contaminants (Table S2).[7] […] The significance thresholds were set to alpha 0.01 and a calculated log2 protein ratio of 4. […]
6. Peptide cellular uptake by fluorescence microscopy
The cell permeability of FAM-labelled peptides in WT Jurkat T cells (peptide 26 and peptide 28) and WT HeLa cells (peptide 28) was visualised by fluorescence microscopy. […]

CC[C@H](C)[C@H](NC(=O)[C@@H](NC(=O)[C@H](C)NC(=O)[C@H](Cc1ccc(OC(C(=O)O)C(=O)O)cc1)NC(=O)[C@H](CCC(=O)O)NC(=O)[C@@H](NC(=O)[C@H](CCC(N)=O)NC(=O)c1ccc2c(c1)C(=O)OC21c2ccc(O)cc2Oc2cc(O)ccc21)[C@@H](C)O)[C@@H](C)O)C(=O)N[C@@H](CCCCN)C(=O)N[C@@H](Cc1c[nH]cn1)C(=O)N1CCC[C@H]1C(N)=O [peptide 26] (5FAM-QTEY(X1)ATIKHP-NH2)
stability in Jurkat T cell lysate [1]: stable | cellular uptake in Jurkat cells (WT Jurkat T cells): no cell uptake
